Patent US6541468B1, “Indolocarbazole derivatives useful for the treatment of neurodegenerative diseases and cancer” (Bayer Corporation, priority 1998, dated 2003)

Experiments:
PK40 (ERK2) = target: T1, PK40 (ERK2) (Homo sapiens, UniProt P28482); test: PK40(ERK2) kinase inhibition assay; type: biochemical; conditions: 0.25 mM ATP, myelin basic protein substrate
T1 construct: made in house; host or cells: E. coli BL21 pLysS (printed 'B121pLysS'), pET-14b vector
Method: Preparation of ERK2: Recombinant human ERK2 with a N-terminal histidine (his) tag was prepared as follows: An ERK2 cDNA clone was amplified from a human frontal cortex library by PCR with primers matching the published human sequence [Gonzales F. A. et al, FEBS Lett. 304, 170-178 (1992)]. The histidine tag was introduced by site-directed mutagenesis. The cDNA was cloned into a pET-14b (Novagen) vector and transfected into the E. coli lysogen strain B121pLysS. Single colony transformants were grown in LB medium containing […] chloramphenicol to maintain pLysS and […] to an O.D.600 OF 0.6. The culture was then induced with 0.4 mM IPTG for 4 hours. The expressed ERK2 protein was then analyzed on a 10% SDS PAGE by both coomassie blue staining and anti-ERK Western blotting. […]
Enzyme, substrate and inhibitor were preincubated for 5-10 min at 4° C. in assay buffers containing a final concentration of 2% DMSO before initiating the reaction with 0.25 mM γ^2P-ATP. […] The filtermats were washed twice for several hours with TCA/PPA until all background radioactivity was removed. Precipitable counts were quantitated directly on the filtermat with a microbeta scintillation counter system (Wallac-Pharmacia). Inhibitor data were subjected to curve fitting and IC50 values were calculated from these curves using the GraphIt program.

PKC = system: T2, PKC; test: PKC inhibition assay; type: biochemical, rat; conditions: footnote a) on the CII value: partial inhibition only
T2 construct: PKC was purified from rat brain using the method of Woodgett J. R. and Hunter T., J. Biol. Chem 262, 4836-4843 (1987)
Method: Preparation of PKC: PKC was purified from rat brain using the method of Woodgett J. R. and Hunter T., J. Biol. Chem 262, 4836-4843 (1987).
PKC was assayed in 50μ 25 mM HEPES, pH 7.0, 10 mM MgCl2, 2 mM CaCl2, 1 mM EDTA, 1 mM DTT, 0.25 mM ATP, 0.2 mg/mL phosphatidylserine, using 20 ng PKC and 0.08 mg/mL histone III-S as a substrate.
Enzyme, substrate and inhibitor were preincubated for 5-10 min at 4° C. in assay buffers containing a final concentration of 2% DMSO before initiating the reaction with 0.25 mM γ^2P-ATP. Samples were incubated for 30 min at 37° C. and reactions were terminated with 10% trichloracetic acid/2% sodium pyrophosphate (TCA/PPA), followed by filtration over a glass fiber filtermat (type A) with a cell harvester (Tomtec). The filtermats were washed twice for several hours with TCA/PPA until all background radioactivity was removed. Precipitable counts were quantitated directly on the filtermat with a microbeta scintillation counter system (Wallac-Pharmacia). Inhibitor data were subjected to curve fitting and IC50 values were calculated from these curves using the GraphIt program.

T1 sequence (P28482 whole entry): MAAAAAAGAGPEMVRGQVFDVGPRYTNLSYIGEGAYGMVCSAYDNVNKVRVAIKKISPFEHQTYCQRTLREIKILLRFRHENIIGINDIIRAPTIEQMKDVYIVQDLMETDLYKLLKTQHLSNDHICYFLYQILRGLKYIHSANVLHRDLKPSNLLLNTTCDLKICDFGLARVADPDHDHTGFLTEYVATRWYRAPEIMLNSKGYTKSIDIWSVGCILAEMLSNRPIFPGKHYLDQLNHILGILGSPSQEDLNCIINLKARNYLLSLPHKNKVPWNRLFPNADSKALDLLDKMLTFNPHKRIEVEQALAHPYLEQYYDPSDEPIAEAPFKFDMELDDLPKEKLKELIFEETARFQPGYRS

**Q.** Which results are given for `COC(=O)[C@@]1(O)C[C@H]2C[C@@H]1n1c3ccccc3c3c4c(c5c6ccccc6n2c5c31)C(=O)NC4=O` (relative stereo) [CIII, 9,12-Methano-1H-diindolo[1,2,3-fg:3′,2′,1′-kl]pyrrolo[3,4-I][1,6] benzodiazocine-10-carboxylic acid, 2,3,9,10,11,12-hexahydro-10-hydroxy-1,3-dioxomethyl ester, (9α,10β,12α)]?
**A.** IC50 (PK40 (ERK2)): > 30000 nM; IC50 (PKC): > 100000 nM

**Q.** For `CNC(=O)[C@]1(O)CC2CC1n1c3ccccc3c3c4c(c5c6ccccc6n2c5c31)C(=O)NC4=O` (stereo partly drawn) [CII, 9,12-Methano-1H-diindolo[1,2,3-fg:3′,2′,1′-kl]pyrrolo[3,4-I][1,6] benzodiazocine-10-carboxamide, 2,3,9,10,11,12-hexahydro-10-hydroxy-N-methyl-1,3-dioxo-(9α,10β,12α)], which IC50 (PK40 (ERK2)) is on record?
**A.** Its IC50 is 44 nM.

**Q.** And the IC50 (PKC)?
**A.** Its IC50 is 650 nM.
